What was measured:
[1] = tested on: mitochondrial fatty acid oxidation using palmitoyl carnitine as substrate; assay: Palmitoyl carnitine oxidation in isolated rat heart mitochondria; assay type: biochemical; settings: 15 min at 30° C.
Experimental: Rat heart mitochodria were isolated by the method of Nedergard and Cannon (Methods in Enzymol. 55, 3, 1979).
The Palmitoyl carnitine oxidation was carried out in a total volume of 100 microliters containing the following agents: 110 mM KCl, 33 mM Tris buffer at pH 8, 2 mM KPi, 2 mM MgCl2, 0.1 mM EDTA, 0.1 mg/ml of defatted BSA, 0.5 mM malic acid, 3 mM ADP, 52 micrograms of mitochondrial protein, and 43 microM 1-C14 palmitoyl carnitine (Sp. Activity 60 mCi/mmole; 20 microCi/ml, using 5 microliters per assay). The compounds of this invention were added in a DMSO solution at the following concentrations: 100 microM, 30 microM, and 3 microM. In each assay, a DMSO control was used. After 15 min at 30° C., the enzymatic reaction was centrifuged (20,000 g for 1 min), and 70 microliters of the supernatant was added to an activated reverse phase silicic acid column (approximately 0.5 ml of silicic acid). The column was eluted with 2 ml of water, and 0.5 ml of the eluent was used for scintillation counting to determine the amount of C^14 trapped as C^14 bicarbonate ion. The data are presented as % activity of control.

[2] = Metabolic stability in human liver S-9 fractions; settings: for Liver S-9 stability factor: % parent remaining after 30 min at 37 C divided by average % ranolazine remaining (57%), 10 μM, human liver S9 2 mg/mL
Experimental: As a measure of metabolic stability the compounds of this invention were incubated with human liver S-9 microsomal fractions. After, 30 minutes at 37 C, the amount of parent drug remaining was determined using LC-mass spec. The response factors for each compound was determined by establishing a standard curve and using an internal standard during the analysis of the samples. […] The compounds of this invention were assayed as described in the protocol below and the percentage of parent remaining was divided by the average % of ranolazine remaining (57%) affording a metabolic stability factor.
The following reagents were used; Potassium phosphate, 0.5M pH 74. (incubation buffer), kept at room temperature; 0.05M MgCl2 kept at 4° C.; β-Nicotinamide adenine dinucleotide phosphate, tetrasodium salt, reduced form (NADPH), 0.02M solution in water (˜16.6 mg/mL) from Sigma Lot #79H7044 prepared on day of use.
Incubation mixtures were prepared as follows:
Combine all components with incubation buffer and re-pipette 200 μL/tube+25 μL of the compound being tested along with 25 μL of S-9.
After 5 min of pre-incubation at 37° C., at 0 and 30 min after starting the reaction, a 50 μl aliquot of the incubation mixture was removed and added to 100 μL of 9:1 acetonitrile: methanol containing the internal standard.
The mixture was centrifuged and a 100 μL aliquot of the supernatant was diluted in 1 mL of solvent C (0.1% Formic Acid in water). Then samples were analyzed for change between the ratio of compound to internal standard at time zero and 30 minutes by LC/MS (injected 10 μL).
Samples were analyzed for the starting compounds and potential metabolite/s by LC/MS using an internal standard on a Micromass platform mass spec with a Keystone Inc. BDS ODS-C18 column with a flow rate of 0.25 ml/min.

Row | Compound | Liver S-9 stability factor [2] | also measured
1 | COc1ccccc1OCC(O)CN1CCN(CC(=O)Nc2c(C)cccc2C)CC1 (racemic) [Ranolazine, (±)-N-(2,6-dimethylphenyl)-4-[2-hydroxy-3-(2-methoxyphenoxy)propyl]-1-piperazineacetamide, reference compound] | 1.0 | Mitochondrial fatty acid oxidation activity (% of control) ([1]; 30 μM compound): 98%; Mitochondrial fatty acid oxidation activity (% of control) ([1]; 100 μM compound): 63%; percentage of parent drug remaining at the 30 minute time point ([2]; human liver S-9, 30 minutes at 37 C, average of five experiments): 57%
2 | Cc1cccc(C)c1NC(=O)CN1CCN(CC(O)COC(C)C)CC1 (stereo not drawn) [Compound 10] |  | Mitochondrial fatty acid oxidation activity (% of control) ([1]; 100 μM compound): 80%
3 | Cc1cccc(C)c1NC(=O)CN1CCN(CC(O)COC2CCCC2)CC1 (stereo not drawn) [Compound 12] | 1.48 | 
4 | Cc1cccc(C)c1NC(=O)CN1CCN(CC(O)COC2CCCCC2)CC1 (stereo not drawn) [Compound 13] | 1.20 | 
5 | Cc1cccc(C)c1NC(=O)CN1CCN(CC(O)COCc2ccc(C(F)(F)F)cc2)CC1 (stereo not drawn) [Compound 17, N-(2,6-dimethylphenyl)-2-[4-(2-hydroxy-3-{[4-(trifluoromethyl)phenyl]methoxy}propyl)piperazinyl]acetamide] | 1.0 | 
6 | Cc1ccc(COCC(O)CN2CCN(CC(=O)Nc3c(C)cccc3C)CC2)cc1 (stereo not drawn) [Compound 22, N-(2,6-dimethylphenyl)-2-(4-{2-hydroxy-3-[(4-methylphenyl)methoxy]propyl}piperazinyl)acetamide] | 0.61 | 
7 | Cc1cccc(C)c1NC(=O)CN1CCN(CC(O)COCc2ccc(-c3ccccc3)cc2)CC1 (stereo not drawn) [Compound 23, N-(2,6-dimethylphenyl)-2-(4-{2-hydroxy-3-[(4-phenylphenyl)methoxy]propyl}piperazinyl)acetamide] | 0.05 | 
8 | CCCCc1ccc(COCC(O)CN2CCN(CC(=O)Nc3c(C)cccc3C)CC2)cc1 (stereo not drawn) [Compound 24, N-(2,6-dimethylphenyl)-2-(4-{3-[(4-butylphenyl)methoxy]-2-hydroxypropyl}piperazinyl)acetamide] | 0.02 | 
9 | Cc1cccc(C)c1NC(=O)CN1CCN(CC(O)COCc2ccc3ccccc3c2)CC1 (stereo not drawn) [Compound 25, N-(2,6-dimethylphenyl)-2-{4-[2-hydroxy-3-(2-naphthylmethoxy)propyl]piperazinyl}acetamide] | 0.01 | 
